Data taken from ChEMBL document CHEMBL1201862, “PubChem BioAssay data set” (2004).
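96-well plates; 48 h exposure; 5 concentrations. Endpoints by linear interpolation between flanking doses. Not reached: highest tested concentration assigned. Here, GI50 denotes the concentration required for 50% inhibition of growth.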 Activity calls are given as the source filed them. Cut-off read from the data, not from the text of the source: active = GI50 up to about 1.1 µM and inactive = higher.

Legend:
Experiment in all cases: inhibition of tumour cell growth, NCI panel, 48 h
A549 = system: A549
EKVX = system: EKVX
HCC 2998 = system: HCC 2998
HCT-116 = system: HCT-116
HCT-15 = system: HCT-15
HL-60 = system: HL-60
HT-29 = system: HT-29
IGROV-1 = system: IGROV-1
M14 = system: M14
NCI-H226 = system: NCI-H226
OVCAR-3 = system: OVCAR-3
RPMI-8226 = system: RPMI-8226
RXF 393 = system: RXF 393
SF-539 = system: SF-539
SN12C = system: SN12C
SNB-75 = system: SNB-75
SW-620 = system: SW-620
U-251 = system: U-251
UACC-257 = system: UACC-257
UACC-62 = system: UACC-62

Measured: GI50

Cn1c(=O)nc2n(-c3ccc(Cl)c(C(F)(F)F)c3)c3ccccc3nc-2c1=O
31.4 µM: HCT-15
inactive: A549 25.8 µM | EKVX 35.1 µM | HCC 2998 25.6 µM | HCT-116 27.2 µM | HL-60 19.3 µM | HT-29 24.3 µM | IGROV-1 84.1 µM | M14 26.1 µM | NCI-H226 > 53.7 µM | OVCAR-3 14.7 µM | RPMI-8226 33.2 µM | RXF 393 55.7 µM | SF-539 29 µM | SN12C 30.9 µM | SNB-75 94 µM | SW-620 22.9 µM | U-251 40.6 µM | UACC-257 17.1 µM | UACC-62 16.6 µM

Cc1oc2nc(N(C)C)n3cnnc3c2c1C
inactive: A549 > 100 µM | EKVX > 100 µM | HCC 2998 > 100 µM | HCT-116 > 100 µM | HL-60 > 100 µM | HT-29 > 100 µM | IGROV-1 > 100 µM | M14 > 100 µM | NCI-H226 > 100 µM | OVCAR-3 > 100 µM | RPMI-8226 > 100 µM | RXF 393 > 100 µM | SF-539 > 100 µM | SN12C > 100 µM | SNB-75 50.6 µM | SW-620 > 100 µM | U-251 > 100 µM | UACC-257 > 100 µM | UACC-62 > 100 µM
> 100 µM: HCT-15

O=c1[nH]c2ccc([N+](=O)[O-])cc2nc1/C(=N/Nc1ccccc1)C(O)c1ccco1 (stereo not given)
18.2 µM: HCT-15
inactive: A549 69.3 µM | EKVX > 100 µM | HCC 2998 38.5 µM | HCT-116 73.1 µM | HL-60 25.2 µM | HT-29 66.8 µM | IGROV-1 87.9 µM | M14 > 100 µM | NCI-H226 > 100 µM | OVCAR-3 > 100 µM | RPMI-8226 34.7 µM | RXF 393 52.8 µM | SF-539 > 100 µM | SN12C > 100 µM | SNB-75 36.3 µM | SW-620 39.4 µM | U-251 > 100 µM | UACC-257 > 100 µM | UACC-62 32.2 µM

Cc1ccc2nc(C(C)C)c(=O)[nH]c2c1
> 100 µM: HCT-15
inactive: A549 57 µM | EKVX > 100 µM | HCC 2998 > 100 µM | HCT-116 > 100 µM | HL-60 > 100 µM | HT-29 > 100 µM | IGROV-1 > 100 µM | M14 > 100 µM | NCI-H226 > 100 µM | OVCAR-3 18.8 µM | RPMI-8226 > 100 µM | RXF 393 93.1 µM | SF-539 85.1 µM | SN12C > 100 µM | SNB-75 42.4 µM | SW-620 > 100 µM | U-251 47 µM | UACC-257 > 100 µM | UACC-62 > 100 µM

Nc1nncc2c1ccn2C1OC(CO)C(O)C1O (stereo not given)
inactive: A549 > 100 µM | EKVX > 100 µM | HCC 2998 > 100 µM | HCT-116 > 100 µM | HL-60 > 100 µM | HT-29 > 100 µM | IGROV-1 > 100 µM | M14 > 100 µM | NCI-H226 > 100 µM | OVCAR-3 > 100 µM | RPMI-8226 > 100 µM | RXF 393 > 100 µM | SF-539 > 100 µM | SN12C > 100 µM | SNB-75 > 100 µM | SW-620 > 100 µM | U-251 > 100 µM | UACC-257 > 100 µM | UACC-62 > 100 µM
> 100 µM: HCT-15

COc1c(C(=O)/C(=N/Nc2ccccc2)C(C)=O)c(O)c(OC)c2occc12
56.2 µM: HCT-15
inactive: A549 52.6 µM | EKVX 22.2 µM | HCC 2998 82.4 µM | HCT-116 34 µM | HL-60 22.6 µM | HT-29 37.3 µM | IGROV-1 67.9 µM | M14 > 100 µM | NCI-H226 52.1 µM | OVCAR-3 67.9 µM | RPMI-8226 17.2 µM | RXF 393 13.7 µM | SF-539 > 100 µM | SN12C 63.7 µM | SNB-75 19.8 µM | SW-620 77.8 µM | U-251 59.7 µM | UACC-257 34.9 µM | UACC-62 20.5 µM

COc1ccc(C2c3cc4c(cc3OC(Nc3ccccc3)C2C)OCO4)cc1 (stereo not given)
inactive: A549 22.5 µM | EKVX 8.59 µM | HCC 2998 67.9 µM | HCT-116 12.7 µM | HL-60 22.2 µM | HT-29 31.7 µM | IGROV-1 99.8 µM | M14 85.9 µM | NCI-H226 41.1 µM | OVCAR-3 53.1 µM | RPMI-8226 26 µM | RXF 393 33.5 µM | SF-539 > 100 µM | SN12C 61.1 µM | SNB-75 44.1 µM | SW-620 64.3 µM | U-251 56.8 µM | UACC-257 75.2 µM | UACC-62 52.8 µM
33.6 µM: HCT-15
